Experiments:
[1] = biological target: Lck (Homo sapiens, UniProt P06239); format: biochemical
[2] = tested on: T cell receptor (TCR) signaling; format: cell-based, human

Sequence of Lck (P06239 whole entry): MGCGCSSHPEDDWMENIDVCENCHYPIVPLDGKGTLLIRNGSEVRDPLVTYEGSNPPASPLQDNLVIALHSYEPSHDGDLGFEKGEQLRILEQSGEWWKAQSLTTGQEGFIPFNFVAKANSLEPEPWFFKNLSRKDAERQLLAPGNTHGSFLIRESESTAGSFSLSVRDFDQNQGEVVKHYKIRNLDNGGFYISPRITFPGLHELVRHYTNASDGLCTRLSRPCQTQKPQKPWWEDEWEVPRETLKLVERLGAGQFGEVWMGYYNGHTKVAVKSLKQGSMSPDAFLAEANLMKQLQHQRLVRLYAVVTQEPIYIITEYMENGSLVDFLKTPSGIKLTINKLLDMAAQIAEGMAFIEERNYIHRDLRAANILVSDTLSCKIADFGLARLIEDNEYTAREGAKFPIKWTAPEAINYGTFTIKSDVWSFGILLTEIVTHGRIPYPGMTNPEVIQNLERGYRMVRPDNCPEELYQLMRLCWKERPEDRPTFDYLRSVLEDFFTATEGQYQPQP

Sequence | Lck-mediated phosphorylation of synthetic peptide [1] | IL-2 production by PBMCs following TCR stimulation [2] | surface expression of T cell activation marker CD25 [2] | surface expression of T cell activation marker CD69 [2]
GGAGLTGGRYEPLVRRC [TAT-276-292] | served as an in vitro Lck substrate | – | – | –
GGGGGRKKRRQRRRVYGSVSVTCVWGS [TAT-Y87] | phosphorylated by Lck in a dose-dependent manner | inhibited | significantly reduced | significantly reduced

Reference: patent US20160067331A1 (priority 2013, published 2016)
